These results are taken from patent EP2112152A1, “Dihydropteridinones as Plk Inhibitors” (GPC Biotech AG, priority 2008, dated 2009).

For assay [1], the system named is PC-3. Briefly: SRB cell proliferation assay, PC-3. The note with it: Homo sapiens, 18-Cell Line Panel, prostate. The class given is cell-based. How it is done:
(§1) Cells were exposed to the test compounds at various concentrations appropriate to determine an IC50 for 72 hours. Cell proliferation was measured using the SRB assay according to Shekan et al (J Natl Cancer Inst (1990) 82, 1107-112) in order to estimate the IC50 values shown in Table 3. Briefly, cells were plated in 96 well dishes 24 hours prior to compound addition at the densities specified in Table 5.1. The assay was terminated with the addition of cold TCA to a final concentration of 10% after growth medium has been removed and the plates were incubated over night at 4°C. The plates were then washed 5 times with water and 100µl of a Sulforhodamine B solution (4%) was added to each well. The plates were then incubated for 10 minutes at room temperature before removal of unbound dye by washing with 1% acetic acid. The bound dye was solubilised with 10 mM Trizma base and the absorbance read at OD520.
(§2) Table 8.1: 18-Cell Line Panel

The test system of assay [2] is COLO 205. The experiment in a line: SRB cell proliferation assay, COLO 205. The class given is cell-based. The note with it: Homo sapiens, 18-Cell Line Panel, colon. How it is done: as §1, §2
The subject of assay [3] is A-431. The experiment in a line: SRB cell proliferation assay, A-431. The class given is cell-based. The note with it: Homo sapiens, 18-Cell Line Panel, skin. On the procedure:
as §1, §2

The test system of assay [4] is SW620. Briefly: SRB cell proliferation assay, SW620. It counts as cell-based. The note with it: Homo sapiens, SW-620; 18-Cell Line Panel; colon. On the procedure:
as §1, §2

In assay [5] the test system is MDA-MB-231. The experiment in a line: SRB cell proliferation assay, MDA-MB-231. The class given is cell-based. The note with it: Homo sapiens, 18-Cell Line Panel, breast. How it is done:
as §1, §2

Assay [6] relates to SK-MEL-5. The experiment in a line: SRB cell proliferation assay, SK-MEL-5. The class given is cell-based. The note with it: Homo sapiens, 18-Cell Line Panel, melanoma. On the procedure: as §1, §2
Assay [7] relates to HeLa. The experiment in a line: SRB cell proliferation assay, HeLa. The note with it: Homo sapiens, 18-Cell Line Panel, cervix. The class given is cell-based. On the procedure:
as §1, §2

In assay [8] the test system is Abl, Akt1, Aur A, c-Kit, c-Raf, Cdk1/CycB, Chk1, FGFR3, Flt3, Fyn, IGF1-R, INSR, Lyn, MAPK-ERK1, p38a, PAK4, PKCalpha, Ret, ROCK2, RSK 1, c-Src, TIE2, and …. The experiment in a line: Selectivity panel (Proteros), 23 other kinases. It counts as biochemical. The note with it: tested at 1 mM in triplicates; each of the 23 other kinases. On the procedure:
Selected compound of the present invention were tested in a standard selectivity panel including Plk1 and 23 other kinases (Proteros biostructures GmbH, Martinsried/Munich, Germany), under conditions of non-disclosure, non-dissemination and non-use.
In brief, compounds 1, 13, 14, and 25 (see Table 1) were tested at 1 mM in triplicates against Plk1 as well as against Abl, Akt1, Aur A, c-Kit, c-Raf, Cdk1/CycB, Chk1, FGFR3, Flt3, Fyn, IGF1-R, INSR, Lyn, MAPK-ERK1, p38a, PAK4, PKCalpha, Ret, ROCK2, RSK 1, c-Src, TIE2, and VEGF-R2.

SMILES strings stand for the structures. A value given as a limit tells only on which side of the number the result lay.

For `CCC1C(=O)N(C)c2cnc(Nc3ccc(C(=O)N[C@H]4CC[C@H](N5CCN(CC6CC6)CC5)CC4)cc3OC)nc2N1N(C)C` (relative stereo) [Compound 13, N-[trans-4-(4-Cyclopropylmethyl-piperazin-1-yl)-cyclohexyl]-4-(8-dimethylamino-7-ethyl-5-methyl-6-oxo-5,6,7,8-tetrahydro-pteridin-2-ylamino)-3-methoxy-benzamide], the IC50 in assay [1], in assay [2], in assay [3], in assay [4], in assay [5] and in assay [6] was less than 1000 nM in each case. Also, the IC50 (usually the concentration needed to halve the response being measured) in assay [7] was less than 1000 nM. The “all other kinases were inhibited” value in assay [8] is recorded as “less than 10%”.
With `CCC1C(=O)N(C)c2cnc(Nc3ccc(C(=O)NC4CCN(C)CC4)cc3OC)nc2N1N(C)C` (racemic) [Compound 1, 4-(8-Dimethylamino-7-ethyl-5-methyl-6-oxo-5,6,7,8-tetrahydro-pteridin-2-ylamino)-3-methoxy-N-(1-methyl-piperidin-4-yl)-benzamide], the IC50 in assay [1] is less than 1000 nM; in assay [2] it was less than 1000 nM; in assay [3], less than 1000 nM; in assay [4] it was less than 1000 nM; in assay [5] it was greater than 1000 nM; in assay [6], less than 1000 nM. Besides, the IC50 in assay [7] was less than 1000 nM. For the same compound, the “all other kinases were inhibited” value in assay [8] is “less than 10%”.
